Experimental data published in patent US9011817B2, “Compounds and methods of making compounds” (The Board of Trustees of the Leland Stanford Junior …, priority 2009, dated 2015).

Legend:
[1] = micro PET scans in normal nude mice; type: in vivo; conditions: initial scans
primary T cells = test: [18F]F-AraG uptake in purified primary T cells, stimulated or un-stimulated; type: cell-based, mouse; conditions: for fold more uptake than un-stimulated primary T cells: 1 μCi, 60 minutes
Method: Error bars represent mean of triplicate determinations+/−SEM., n=4 p=0.14 and 0.003 by two tailed, paired Student T test respectively.
(§1) CCRF-CEM (acute lymphoblastic T leukemia cell line procured form ATCC) cells were maintained in RPMI 1640 (Cellgro) supplemented with 100 U penicillin/100 ug streptomycin/ml (Cellgro) and 10% fetal bovine serum (Gibco). 5×10^5 CCRF-CEM cells were plated in 12 well dishes. Cells were allowed to settle for one hour then [^18F]F-AraG was added to each well and incubated at 37° C. for indicated times. Primary T cells were isolated from spleens and thymus of out-bred mice. Briefly, tissues were minced and single cell suspensions made in RPMI supplemented as above. Cells were centrifuged at 300×g for 8 minutes at 4° C. and cell pellets were resuspended in phosphate buffered saline (PBS) supplemented with 0.5% bovine serum albumin (BSA). T cells were purified from the suspensions using Miltenyi Pan T antibodies and columns (Miltenyi Biotec) per manufacturer's directions. Purified T cells were either stimulated with 100 U/ml IL-2 (eBiosciences) for 24 or 48 hours, or 50 nM phorbol myristate acetate (PMA) (Fluka) with 1 μg/mL ionomycin (Sigma) for 48 hours or left unstimulated then exposed to 1 μCi of [^18F]F-AraG/10^6 cells for 60 minutes. All cells were then washed in 1×PBS, lysed and radioactivity of each well was determined by gamma counter for [^18F] samples. All results were done in triplicate and are expressed in counts per minute (CPM), standard errors were determined and student T tests performed.

CCRF-CEM cells [2] = test: [18F]F-AraG cell uptake in CCRF-CEM cells (gamma counter); type: cell-based; conditions: for fold more [18F]F-AraG uptake at 10 μCi as compared to 3 μCi: 5×10^5 CCRF-CEM cells
Method: FIG. 2.2 illustrates a graph of 5×10^5 CCRF-CEM cells were labeled with ^18F-AraG (0.6 mCi/ml) for indicated times and doses. Uptake was measured on gamma counter. Bars represent mean of triplicate determinations+/−SEM.
Cells took up ˜2-fold more [^18F]F-AraG when exposed to 10 μCi, at 60 minutes (p=0.008) and at 120 minutes (p=0.001) as compared to 3 μCi. Error bars represent S.E.M.
as §1

CCRF-CEM cells [3] = test: Competition of cold 2F-AraG with 8-[3H]-AraG uptake in CCRF-CEM cells; type: cell-based; conditions: increasing amount of 2F-AraG 1-100 μM, 60 or 120 minutes
Method: FIG. 2.3a illustrates a graph of 5×10^5 CCRF-CEM cells were incubated, in triplicate, with 1 uCi 8H^3-AraG (1 mCi/ml) and increasing amounts of cold 2F-AraG or DMSO for either 60 or 120 minutes. Percent of control uptake was calculated as: measured cpm of sample/cpm accumulated 1 uCi 8[H^3]-AraG control×100.
We have successfully synthesized a novel ^18F derivative of 2-deoxyguanosine analog, 9-β-D-arabinofuranosylguanine (18F-AraG), to use as a molecular probe (FIG. 2.1). [^18F]AraG cell uptake was evaluated in leukemia cell line, CCRF-CEM, and was compared with [^3H]Arag cell uptake. […] To determine whether cold derivative 2F-AraG competes with the uptake of 8-[^3H]-AraG, we studied the [^3H]-Arag uptakes by CCRF-CEM, MOLT-4 (Leukemia cell line) and Raji (human Burkitt's lymphoma cell line) and competition with cold 2F-AraG (FIGS. 2.3a and 2.3b). […] Competition assays indicate that cold derivative 2F-Arag competes with the uptake of the 8-[^3H]-AraG, indicating similar uptake pathways.

[4] = cited from earlier work

Question: Which “tissue uptake in micro PET” value [1] does the source give for `Nc1nc2c(ncn2[C@@H]2O[C@H](CO)[C@@H](O)[C@@H]2[18F])c(=O)[nH]1` [[^18F]F-AraG, 2′-Deoxy-2′-[^18F]fluoro-9-β-D-arabinofuranosylguanine] here?
Answer: Its value is “taken up within the thymus and lymph nodes”.

Question: And the “cell uptake (qualitative)” value (primary T cells; activated primary thymocytes / primary T cells)?
Answer: Its value is “take up [^18F]F-AraG to an appreciable level”.

Question: And the “fold more uptake than un-stimulated primary T cells” value (primary T cells; stimulated with 50 nM PMA and 1 μg/mL ionomycin, p=0.003)?
Answer: Its value is 4.7 fold.

Question: And the “fold more uptake than un-stimulated primary T cells” value (primary T cells; stimulated with 100 U/mL interleukin 2, p=0.14)?
Answer: The value was 1.4 fold.

Question: What about the “fold more [18F]F-AraG uptake at 10 μCi as compared to 3 μCi” value (CCRF-CEM cells [2]; 60 minutes, p=0.008) of the same compound?
Answer: Its value is about 2 fold.

Question: And the “fold more [18F]F-AraG uptake at 10 μCi as compared to 3 μCi” value (CCRF-CEM cells [2]; 120 minutes, p=0.001)?
Answer: Its value is about 2 fold.

Question: And the “dose dependence of uptake” value (CCRF-CEM cells [2]; CCRF-CEM cells)?
Answer: Its value is “dose dependent”.

Question: And the “time course of uptake” value (CCRF-CEM cells [2]; CCRF-CEM cells, 60 or 120 minutes)?
Answer: Its value is “majority of the [^18F]F-AraG is taken up by cells within the first hour”.

Question: What about the “cell uptake (qualitative)” value (CCRF-CEM cells [2]; CCRF-CEM leukemia cell line, unactivated) of the same compound?
Answer: Its value is “take up”.

Question: What about the “fold increase in [18F]F-AraG uptake, cells exposed to 10 μCi compared to 3 μCi” value (CCRF-CEM cells [2]; unactivated CCRF-CEM cells, time not stated) of the same compound?
Answer: The value was 2 fold.

Question: For `Nc1nc2c(ncn2[C@@H]2O[C@H](CO)[C@@H](O)[C@@H]2F)c(=O)[nH]1` [2F-AraG, 2′-Deoxy-2′-fluoro-9-β-D-arabinofuranosylguanine], which “effect on [3H]-AraG uptake” value (CCRF-CEM cells [3]) is on record?
Answer: Its value is “decrease of the [^3H]-AraG uptake”.

Question: For `Nc1nc2c(ncn2[C@@H]2O[C@H](CO)[C@@H](O)[C@@H]2O)c(=O)[nH]1` [AraG, 9-β-D-arabinofuranosylguanine], which “therapeutic serum levels at which neurotoxic side effects are induced in some patients” value [4] is on record?
Answer: The value was about 150 µM.
